In patent publication US5466667A, “Prophylactic and therapeutic methods for treating edema with antamanides” (priority 1993, dated 1995):
“Also recorded” adds a separate entry of the source. Residues, ends and D or L forms follow the SMILES beside them.

How the values were obtained:
[1] = test system: endothelial cell; conditions: physiological titers and concentrations; cited from earlier work
[2] = test system: endothelial cells; conditions: cited from earlier work
[3] = test system: endothelial actin cytoskeleton; conditions: cited from earlier work
[4] = test system: bovine aortic endothelial cells (BAEC); test: Microfilament and cell surface area measurement in cultured endothelial cells (rhodamine-phalloidin fluorescence microscopy); type: cell-based
From the text: Bovine abdominal aortas were clamped and tied in-situ and dissected free of the supporting adventitia. Aortas were transported from the abbatoir on ice. Endothelial cells were harvested by gentle ablation of the endothelium following the technique of Shepro et al. [Anat. Rec. 178:523 (1974)]; digested with 0.1% collagenase; and then pelleted and seeded onto 100 mm diameter tissue culture dishes using conventional techniques. The cell medium consisted of DULBECCO'S MODIFIED EAGLES'S MEDIUM medium (hereinafter "DME") at pH 7.4 supplemented with 10% fetal calf serum (hereinafter "FCS"), 0.1% of penicillin, 0.7% streptomycin, 0.1% amphotericin, and 0.1% glutamine. The cell media was replaced every 3 days. The cells were incubated at 37° C. in a 10% carbon dioxide, 90% ambient atmosphere (100% humidified).
This amount of confluency permits excellent visualization of cell spreading and stressed fibers. Individual confluent layers of cells were then treated with 1 uM Phallin A for 30 minutes duration; then fixed in 3.7% phosphate-buffered formaldehyde (pH 7.4) for 15 minutes. The cells on each coverslip were then permeabilized in extraction buffer (composed of 0.5M KCl, 1% triton X-100, 10 mM MgCl2, and 1 mg/ml tosyl-arginine methyl ester (hereinafter "TAME"); 17 ug/ml toluene-sulfonyl fluoride (hereinafter "TSF"); and 0.25 mg/ml DNAse 1 in PBS for a period of 10 minutes. Subsequently, this extraction buffer was removed and the cells washed three times in sequence with PBS. The cells were then stained with Rhodamine-phalloidin (an F-active specific fluorescent probe, Molecular Probes, Inc., Junction City, Oreg.) at 1 unit/200 ul per coverslip for 39 minutes duration. Subsequently, the coverslips were washed five times consecutively in PBS; mounted in a 1:1 ratio mixture of PBS/glycerol; and sealed. The cultured cells on each coverslip were illuminated for fluorescence microscopy. […] For comparative purposes, 1.0 uM of phalloidin (also known as Phallin B) or a mixture of Phallin A and Phhallin B, and PBS alone as the control was similarly evaluated. […] Clearly, the use of Phallin A at concentrations of 10^-6 to 10^-7 M is non-toxic to the cultured endothelial cells.

[5] = test system: bovine aortic endothelial cells (BAEC); test: Permeability assay: TBA (trypan blue-albumin) uptake by BAEC-covered microcarrier beads; type: cell-based; conditions: 1 uM, 30 minutes, versus untreated controls and mixture of phalloidin and Phallin A, FIG. 2
Protocol: Bovine aortic endothelial cells (BAEC) were prepared, cultured, and harvested as described within Experiment 1. Subsequently, BAEC were subcultured a maximum of three times before seeding onto CYTODEX 3 microcarrier beads (Pharmacia, Inc. ) . Microcarrier beads were suspended in cell media at a concentration of 40,000 microcarriers per milliliter. Beads were suspended by stirring, using a magnetic stirrer. BAEC were seeded onto the beads at the minimum density of 15 cells per bead and allowed to reach confluency. Subsequently, BAEC covered beads were allowed to incubate for 6 days post-confluency to obtain near maximum barrier function of the cell monolayers on the beads. After this incubation period, the BAEC covered beads were ready for use within permeability experiments. […]
BAEC barrier function was measured by TBA uptake per bead; therefore, it is necessary to standardize the number of beads per milliliter. […] Standard curves for absorbance as a function of bead concentration provides a linear relationship as a basis for comparison and extrapolation. […]
BAEC barrier function was then assessed in the following manner: 3.0 ml of BAEC-covered microcarrier beads at a density of 40,000 beads per milliliter were aliquotted into a 4.5 ml test vial in duplicate. […]
This assay procedure uses colorimetry to measure TBA dye absorbance by the beads. […]

[6] = cited from earlier work

For NC[C@H](O)c1ccc(O)c(O)c1 [norepinephrine], the endothelial cell movement [1] is listed as “inhibit endothelial cell movement” and the “stress fibers within endothelial cells” value [2] is listed as “stimulate the assembly of stress fibers”.

For NCCc1c[nH]c2ccc(O)cc12 [serotonin], the endothelial cell movement [1] is listed as “inhibit endothelial cell movement” and the “stress fibers within endothelial cells” value [2] is listed as “stimulate the assembly of stress fibers”.

For NCCc1c[nH]cn1 [histamine], the endothelial cell movement [1] is listed as “inhibit endothelial cell movement” and the “stress fibers within endothelial cells” value [2] is listed as “produces stress fiber disassembly”.

For C=C1[C@@H](C)[C@H]2[C@H](Cc3ccccc3)NC(=O)[C@]23OC(=O)/C=C/[C@H](O)CCC[C@@H](C)C/C=C/[C@H]3[C@@H]1O [cytochalasin B], the “permeability for plasma proteins after disruption of endothelial actin cytoskeleton” value [3] is listed as “increase in permeability for plasma proteins”.

For CC(C)[C@@H]1NC(=O)[C@H](Cc2ccccc2)NC(=O)[C@H](Cc2ccccc2)NC(=O)[C@@H]2CCCN2C(=O)[C@@H]2CCCN2C(=O)[C@H](Cc2ccccc2)NC(=O)[C@H](Cc2ccccc2)NC(=O)[C@H](C)NC(=O)[C@@H]2CCCN2C(=O)[C@@H]2CCCN2C1=O [Phallin A, antamanide] (cyclo(AFFPPFFVPP)), the “cell surface area and cell perimeter” value ([4]; BAEC at 50% confluency, 1 uM, 30 minutes) was “increased surface area and cell perimeter”, the cell proliferation ([4]; BAEC, 1.0 uM, FIG. 1) was “do not alter in proliferation” and the “ratio of cell perimeter to cell area (roundness)” value ([4]; BAEC, 1.0 uM, FIG. 1) was “diminishes”. The “cell shape (flattening and border extension)” value ([4]; BAEC, 1.0 uM, FIG. 1, comparable to other agents and controls) was “substantial flattening and border extension”, the “toxicity to cultured endothelial cells” value ([4]; concentrations of 10^-6 to 10^-7 M) was “non-toxic” and the “endothelial cell barrier function / resistance to permeability (TBA uptake)” value [5] was “markedly increases cell barrier function”. The “protection of the liver” value ([6]; administered in therapeutic doses) was “protecting the liver completely” and the “annulling toxic effects of fatal doses of phalloidin” value ([6]; in vivo) was “capable of annulling the toxic effects of fetal doses of phalloidin; also recorded: capable at very low dosage of counteracting the effects of an absolutely fatal dose of phalloidin”.
